Measured values reported in patent publication US20150272874A1, “PULMONARY DISEASE-SPECIFIC THERAPEUTIC AGENT” (CARDIO INCORPORATED, priority 2012, published 2015).
Several values for one entry are separate records, joined by “and”; a condition that tells them apart may be missing. Equal values may be shown once. Where a name gives a salt, the structure may show the parent alone.

Experiments:
[1] = system: monocrotaline (MCT) pulmonary hypertension models; assay: Pharmacological Effect Test 5: combined effect of ozagrel hydrochloride with Compounds 3 and 7, survival; format: in vivo, Slc;Wistar female rats; conditions: oral twice a day until Day 42; Compound 3 or 7 0.1 mg/kg, ozagrel hydrochloride 100 mg/kg, alone or combined
Protocol: After Slc;Wistar female rats (5 weeks old) were anesthetized with inhaled isoflurane, an aqueous monocrotaline (MCT) solution was subcutaneously administered into the dorsal region of each rat at a dose of 60 mg/kg (an injection volume of 3 mL/Kg) using a disposable syringe and a 27G disposable injection needle to prepare pulmonary hypertension models.
From immediately after the MCT administration until Day 42, test substances were repeatedly administered orally twice a day as shown in the following table.
The test substances were suspended in 0.5% aqueous CMC-Na solutions, and the aqueous solutions were orally administered repeatedly at a dose of 5 mL/kg.

[2] = system: MCT-induced mild pulmonary hypertension model; conditions: mild disease model; Am J Respir Crit Care Med 169: 34-38-2004; cited from earlier work
[3] = Maximum tolerated oral dose without blood-pressure-lowering effect; format: in vivo
[4] = cited from earlier work
blood TXA2 concentration = conditions: MCT rat models; Am J Respir Crit Care Med 172, 1575-1580 (2005); cited from earlier work
[5] = system: Normal human newborn foreskin dermal fibroblasts (Fibrocell NHDF (NB)); assay: Pharmacological Effect Test 6: production of cytokines (ELISA) and PGs (EIA); format: cell-based; conditions: 1 μM, 72 hours, n=3, M ± S.E.
Protocol: Normal human newborn foreskin dermal fibroblasts (Fibrocell NHDF (NB)) provided from Kurabo Industries, Ltd., were cultured to confluency at […] (DMEM 10% FBS). Twenty-four hours after replacing the medium with (serum-free) DMEM, the medium was replaced with DMEM (0.2% FBS), and Compound 1 (1 μM) and a solvent (DMSO) was added. The cells were cultured for 72 hours (n=3).
Cytokines in the culture were measured by ELISA, and prostaglandins were measured by EIA.
PGI2 was measured by using a degradation product of PGI2 (6-keto-PGF1α).

[6] = Pharmacological Effect Test 3: Compound 1 content of the lungs (LC/MS/MS); format: in vivo, Slc;Wistar male rats; conditions: for Concentration of Compound 1 in the tissue: lung, individual animals, 1 mg/kg
Protocol: Further, the Compound 1 contents of the lungs in Groups 3 and 4 were measured.
A four-fold amount of a mixture of distilled water and ethanol relative to the lung weight was added to form a homogenate. Acetonitrile was added to a part of the homogenate and the resulting mixture was stirred. The centrifuged supernatant was collected and concentrated. After the concentrate was dissolved in a solvent, LC/MS/MS measurement was performed under the same conditions as in Preparation Test Example 2 to determine Compound 1 content of the lungs.

[7] = cited from earlier work; remark: listed apart in the source
TXA2 synthetase = biological target: T1, TXA2 synthetase (Rattus norvegicus, UniProt P49430); assay: Dose completely inhibiting TXA2 synthetase; format: in vivo; conditions: oral dose
T1 construct: endogenous in cells; host or cells: Whole animal dosed in vivo (rat inferred)
T1 sequence (P49430 1-533): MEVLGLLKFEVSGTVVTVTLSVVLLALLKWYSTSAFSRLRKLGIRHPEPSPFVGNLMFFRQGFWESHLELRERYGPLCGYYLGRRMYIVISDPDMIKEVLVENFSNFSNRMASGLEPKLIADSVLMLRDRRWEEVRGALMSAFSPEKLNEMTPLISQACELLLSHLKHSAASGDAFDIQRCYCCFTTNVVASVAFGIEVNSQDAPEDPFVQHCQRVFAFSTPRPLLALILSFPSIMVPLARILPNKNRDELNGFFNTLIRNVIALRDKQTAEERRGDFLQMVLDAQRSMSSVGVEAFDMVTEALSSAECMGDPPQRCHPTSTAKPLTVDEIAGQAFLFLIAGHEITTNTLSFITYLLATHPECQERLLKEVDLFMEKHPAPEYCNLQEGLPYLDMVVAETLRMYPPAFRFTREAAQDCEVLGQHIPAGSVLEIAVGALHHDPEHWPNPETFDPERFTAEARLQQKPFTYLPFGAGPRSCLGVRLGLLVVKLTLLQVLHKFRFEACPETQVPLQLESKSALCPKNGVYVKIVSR

CC#CC[C@@H](C)[C@H](O)/C=C/[C@@H]1[C@H]2c3cccc(CCCC(=O)[O-])c3O[C@H]2C[C@H]1O.[Na+] (racemic) [Compound 3, sodium (±)-(1R,2R,3aS,8bS)-2,3,3a,8b-tetrahydro-2-hydroxy-1-[(E)-(3S,4RS)-3-hydroxy-4-methyl-1-octen-6-ynyl]-1H-cyclopenta[b]benzofuran-5-butanoate]
survival rate vs medium-administered group [1]: no survival prolongation effect
combined effect with a PDEV inhibitor (sildenafil) [2]: synergistic effect
efficacy administered alone [2]: efficacious
MTD ([3]; Slc:Wistar, rat, in vivo, read-out: maximum tolerated dose that does not show blood-pressure-lowering effect): 0.1 mg/kg
long-term effects ([4]; after 1 year): no significant difference
exercise tolerance ([4]; relatively short-term (after 12 weeks)): improved

O=C(O)COc1cccc2c1CCC=C2CCO/N=C(\c1ccccc1)c1cccnc1 [Compound 1, (E)-[5-[2-[1-phenyl-1-(3-pyridyl)methylideneaminooxy]ethyl]-7,8-dihydronaphthalen-1-yloxy]acetic acid]
blood TXA2 concentration (blood TXA2 concentration): inhibits an increase
6-keto-PGF1α (PGI2) [5]: 44.5 ± 4.014 pg/mL
G-CSF [5]: 28.71 ± 6.110 pg/mL
HGF [5]: 102.60 ± 15.658 pg/mL
HMGB1 [5]: 1.480 ± 0.147 ng/mL
PGE2 [5]: 38.1 ± 6.392
SDF-1α [5]: 2457.46 ± 231.884 pg/mL
VEGF [5]: 38.44 ± 11.857 pg/mL
average concentration in lung tissue ([6]; Group 3: Preparation Example 1 single i.v. 1 mg/kg): 76.35 ng/g
average concentration in lung tissue ([6]; Group 4: Preparation Example 1 single s.c. 1 mg/kg): 0.659 ng/g
concentration in lung tissue, intravenous compared to subcutaneous injection ([6]; i.v. 1 mg/kg vs s.c. 1 mg/kg): about 120 fold
ratio of Group 3 to Group 4, concentration in lung tissue ([6]; i.v. 1 mg/kg vs s.c. 1 mg/kg): 115.9
Concentration of Compound 1 in the tissue ([6]; Group 3 (1 mg/kg) of Preparation Example 1): 50.0 ng/g and 99.2 ng/g and 45.2 ng/g and 111 ng/g
Concentration of Compound 1 in the tissue ([6]; Group 4 (1 mg/kg) as printed, Preparation Example 1): 1.06 ng/g and 0.258 ng/g

CCCC[C@H](C)C[C@H](O)/C=C/[C@H]1[C@H](O)CC(=O)[C@@H]1CC(=O)CCCCC(=O)OC [Compound 7, 17S,20-dimethyl-6-oxo-prostaglandin E1 methyl ester]
survival rate vs medium-administered group [1]: no survival prolongation effect
maximum tolerated dose that does not show blood-pressure-lowering effect [3]: 0.1 mg/kg

CCCCC[C@H](O)/C=C/[C@@H]1[C@H]2C/C(=C/CCCC(=O)O)O[C@H]2C[C@H]1O [Epoprostenol sodium, reference compound]
half-life [7]: about 6 minutes
blood TXA2 concentration (blood TXA2 concentration): further increases

O=C(O)/C=C/c1ccc(Cn2ccnc2)cc1 [ozagrel hydrochloride]
survival rate vs medium-administered group [1]: no survival prolongation effect
amount that completely inhibits the TXA2 synthetase (TXA2 synthetase): 100 mg/kg
